Columns and labels:
[1] = test system: Trypanosoma brucei brucei (Tbb); assay: in vitro antitrypanosomal activity (Alamar Blue method of Räz et al.); type: cell-based; details: for Antitrypanosomal activity, activity (verbal grade): Tbb; for Antitrypanosomal activity, activity (verbal grade) / IC50: in vitro; for IC50: Trypanosoma brucei, concentration providing 50% death of parasites, mean±SD of three experiments; for Selectivity index CHO/tbb: IC50 (CHO) / IC50 (Tbb); for Selectivity index WI38/tbb: IC50 (WI38) / IC50 (Tbb); for Selectivity index LC50/tbb: LC50 (A. salina) / IC50 (Tbb)
Excerpt: (§1) The Antitrypanosomal activity, toxicity test, and cytotoxicity assay were done according to Räz et al., Sleet and Brendel and Stevigny et al., respectively.

[2] = toxicity test against Artemia salina Leach larvae (Sleet and Brendel); type: in vivo; details: Artemia salina Leach (larvae), in vivo; concentration providing 50% death of larvae; mean±SD of three experiments
Excerpt: as §1

[3] = test system: Artemia salina (Leach) larvae; assay: as above; type: in vivo; details: larvae
Excerpt: as §1

[4] = cytotoxicity assay on WI38 cells (Stevigny et al.); type: cell-based, human; details: WI38 non-cancer fibroblast cells; human normal fibroblast cells; mean±SD of three experiments
Excerpt: as §1

[5] = test system: human non cancer fibroblast cell line (WI38); assay: cytotoxicity assay on WI38 cells (Stevigny et al.); type: cell-based; details: for Selectivity index WI38/CHO: IC50 (WI38) / IC50 (CHO), selectivity between the two tested cell lines; for Cytotoxicity WI38, Activity (verbal grade): WI38 cells
Excerpt: as §1

[6] = cytotoxicity assay on CHO cells (Stevigny et al.); type: cell-based, Chinese Hamster; details: Chinese Hamster Ovary (CHO) cells; Chinese Hamster Ovary cells; mean±SD of three experiments
Excerpt: as §1

[7] = test system: Chinese Hamster Ovary (CHO) cells; assay: cytotoxicity assay on CHO cells (Stevigny et al.); type: cell-based; details: CHO cells
Excerpt: as §1

Structure (SMILES)	Antitrypanosomal activity, activity (verbal grade) [1]	IC50 [1] [µM]	LC50 [2] [µM]	Toxicity against A. salina Leach, Activity (verbal grade) [3]	IC50 [4] [µM]	Selectivity index WI38/CHO [5]	Cytotoxicity WI38, Activity (verbal grade) [5]	IC50 [6] [µM]	Cytotoxicity CHO, Activity (verbal grade) [7]	Selectivity index CHO/tbb [1]	Selectivity index WI38/tbb [1]	Selectivity index LC50/tbb [1]
CC1=C/C(=N\NC(=O)Nc2ccccc2)C(C(C)C)CC1 (stereo not drawn) [compound 3, piperitone 4-phenyl semicarbazone]	trypanocidal	8.63 ± 0.81	85.5 ± 2.28	Not toxic	81 ± 9.15	1.23	Not cytotoxic	65.9 ± 4.8	Moderate	–	–	–
CC1=C/C(=N\NC(=S)Nc2ccccc2)C(C(C)C)CC1 (stereo not drawn) [compound 4, piperitone 4-phenyl thiosemicarbazone]	trypanocidal	10.9 ± 2.52	32.2 ± 1.66	Toxic	134 ± 5.45	2.05	Not cytotoxic	65.3 ± 4.02	Moderate	6.00	12.30	2.96
CC1=C/C(=N\NC(N)=S)C(C(C)C)CC1 (stereo not drawn) [compound 2, piperitone thiosemicarbazone]	moderate	74.6 ± 4.44	86.7 ± 2.33	Not toxic	143 ± 4.89	6.78	Not cytotoxic	21.2 ± 1.37	Cytotoxic	0.28	1.92	1.16
CC1=C/C(=N\NC(N)=O)C(C(C)C)CC1 (stereo not drawn) [compound 1, piperitone semicarbazone]	low	478 ± 7.19	373 ± 6.6	Not toxic	481 ± 6.69	2.25	Not cytotoxic	214 ± 7.56	Not toxic	0.45	1.01	0.78
